Peptide text beside a SMILES is read from it.
Legend:
[1] = system: DvWL2 cells; assay: CPP-mediated delivery of mCherry mRNA cargo into insect cells; type: cell-based, Diabrotica virgifera virgifera; details: complex of 75 μM unlabeled CPP and 10 μg mCherry mRNA, overnight
Text: (§1) Sample preparation and analysis methods were based on those previously reported (Jafari et al. (201 4) “Serum stability and physicochemical characterization of a novel amphipathic peptide C6M 1 for siRNA delivery”, PLoS One, 9(5), e97797; and Gillet et al. (2017) “Investigating Engineered Ribonucleoprotein Particles to Improve Oral RNAi Delivery in Crop Insect Pests”, Frontiers in Physiology, 8(256), doi: 10.3389/fphys.2017.00256). Reagents are described in Examples 1 and 2. Nanocomplex samples were prepared in one of several ways, depending on type of CPP, RNA, or assay. […] Reaction volumes added to cells were 6.38 μL CPP and 6.38 μL mRNA. Final optimal CPP concentration was assessed by amount of fluorescent signal apparent within cells. For insect cell-based assays with CPP-YFP·Cy3-dsRNA or CPP·dsRNA, first a complex formation solution was prepared in molecular biology-grade water containing 90 mg·mL^−1 maltose, 9 mg·mL^−1 mannitol, 392. 16 mM CaCI2, pH 7.0, and vacuum-filtered using Corning™ Disposable Vacuum Filter and Storage System containing a cellulose nitrate filter. Then, increasing amounts of CPP-YFP were added to Cy3-dsRNA, from a molar ratio (CPP-YFP:Cy3-dsRNA) of 1:4 through 8:1 and incubated protected from light at 25° C. for 90 minutes prior to assessment via gel shift and DLS. Reaction volumes added per cell well were comprised of 17 μL reaction solution, 1 μL CPP, 1 μL dsRNA, and 1 μL molecular biology grade water; reaction sizes for larger total volumes were increased in increments of 20 μL and component ratio was held constant to maintain an ionic strength of […]. Final optimal molar ratio selected for cell experiments were determined by increase of the apparent size of the Cy3-dsRNA band on a native agarose gel (FIG. 2A and FIG. 2B), and/or appearance and increase in size of the complex peak detected by a Zetasizer Ultra (Malvern Panalytical, Malvern, United Kingdom) DLS instrument (FIG. 2C). […] Final optimal BAPC1 concentration was assessed by amount of fluorescent signal apparent within cells. […]

[2] = system: DU182A cells; assay: as above; type: cell-based, Diabrotica undecimpunctata; details: complex of 75 μM unlabeled CPP and 10 μg mCherry mRNA, overnight
Text: as §1

[3] = system: western corn rootworm (WCR) larvae; assay: Oral toxicity screening of CPPs in artificial diet; type: in vivo; details: first instar WCR larvae, mortality and stunting
Method: Briefly, CPPs were incorporated into standard WCR artificial diet in 96-well microtiter plate format. A 25 μL aliquot of dosing solution was combined with 75 μL molten low-melt WCR diet and shaken on an orbital shaker to mix. Once diet solidified, preconditioned first instar WCR (freshly-hatched insects placed on neutral diet for 24 hours prior to transfer to test diet) were added to the diet plates at a rate of 1 insect·well^−1. Plates were placed inside an incubator (Percival Scientific, Inc., Perry, IA) set to 27° C., 65% RH, and a 24-hour dark cycle. The assay was scored for mortality and stunting affects after 7 and 12 days, without diet refresh, on a 0-3 scale, where 3=mortality, 2=severe stunting, 1=stunting, 0=no affect when compared with untreated larvae. The assay was repeated three times and end-results were tabulated using all three replicates and converted to percentages (Table 5).

N=C(N)NCCC[C@H](NC(=O)[C@H](Cc1c[nH]c2ccccc12)NC(=O)[C@H](CCCNC(=N)N)NC(=O)[C@@H](N)CS)C(=O)N[C@@H](Cc1c[nH]c2ccccc12)C(=O)N[C@@H](CCCCN)C(=O)N[C@@H](CS)C(=O)N[C@@H](CS)C(=O)N[C@@H](CCCCN)C(=O)N[C@@H](CCCCN)C(=O)O [CyLoP-1, CRWRWKCCKK] (H-CRWRWKCCKK-OH; N-terminus and C-terminus assumed)
fluorescent protein translated from delivered mCherry mRNA (fluorescent signal inside cells) [1]: Translation of mRNA into a functional fluorescent protein occurred | fluorescent protein translated from delivered mCherry mRNA (fluorescent signal inside cells) [2]: Translation of mRNA into a functional fluorescent protein occurred | Affected (%) ([3]; 0.195 ppm in artificial diet): 0% | Affected (%) ([3]; 0.391 ppm in artificial diet): 0% | Affected (%) ([3]; 0.781 ppm in artificial diet): 0% | Affected (%) ([3]; 1.56 ppm in artificial diet): 0% | Affected (%) ([3]; 3.13 ppm in artificial diet): 0% | Affected (%) ([3]; 6.25 ppm in artificial diet): 0% | Affected (%) ([3]; 12.5 ppm in artificial diet): 0% | Affected (%) ([3]; 25.0 ppm in artificial diet): 0% | Affected (%) ([3]; 50.0 ppm in artificial diet): 0% | Affected (%) ([3]; 100 ppm in artificial diet): 0% | Affected (%) ([3]; 200 ppm in artificial diet): 0%
